Read-outs that look alike come from different tables or passages of the source.
Experiments:
[1] = Metabolic stability of liver microsomes in vitro (mouse); format: in vitro ADME; conditions: read-out: Mouse T1/2/min
Description: Microsomes were taken out from the −80° C. refrigerator, rapidly melted in a 37° C. water bath and placed on ice until ready to use. The test article was diluted with DMSO to prepare a 10 mM stock solution, and then diluted with acetonitrile to a 0.5 mM secondary stock solution. The microsomes were diluted to 0.75 mg/ml using Buffer C; the secondary stock solution was then added to a final concentration of 1.5 μM of compound as working solution, based on n=2, 5 time points, 350 μL of each compound was prepared and placed on ice prior to use. NADPH was diluted with Buffer C to a working solution of 6 mM for the starter solution. An acetonitrile solution containing an internal standard was prepared as the precipitant, and Verapamil-HCl was chosen as the internal standard at a concentration of 4 ng/ml.
A round-bottom well plate was taken, noted as the reaction plate, and the prepared working solution for each compound was dispensed into the well plate according to the number of replicates and time points (0 h samples are also added to the reaction plate), 30 μL/well; the plate was incubated at 37° C. for 10 min. A separate plate with pointed bottom wells, noted as a precipitation plate, was added with 135 μL precipitant per well; 0 h samples were transferred to the plate after 10 min incubation and 15 μL of starter solution was added; the plate was placed on ice before centrifugation.
The diluted starter solution was added in sufficient quantity to the dispensing plate to facilitate the multichannel pipette aspiration operation.
The reaction was carried out on a warm incubation shaker and 15 μL of starter solution/sample is added to the plate using a multichannel pipette. The reaction was mixed with a slight shake to initiate the reaction, which was accurately timed and recorded using a timer;
After the reaction time had elapsed, all the solution in the plate was aspirated using the multichannel pipette and added to the precipitation plate to terminate the reaction at that point in time. After all reactions had been terminated, the plates were shaken for ten minutes on a plate shaker at 600 rpm to precipitate the protein. The plate was centrifuged at 4° C. for 15 minutes at maximum rpm. 80 μL of supernatant was taken, 320 μL of pure water was added and mixed for LC-MS analysis.

MIA Paca-2 cells = experiment: Anti-proliferative effect by Cell Titer-Glo, MIA Paca-2; format: cell-based; conditions: Homo sapiens, read-out: IC50 measured value MIA Paca-2
Description: Compound solutions of different concentration gradients were prepared. DMSO was dissolved to a concentration of 10 mM test compound and 10 mM reference compound AZD1775, and the compounds were serially diluted in culture medium for a total of 9 dose points, with 2 parallel replicates set at each concentration. The cell growth group without compound was used as a positive control (maximum signal control) and the medium was used as a negative control (minimum signal control), while ensuring that the final level of DMSO in each reaction well was 0.2%. After removing the medium from the 384-well plate, 25 ul of the configured compound at different concentrations was transferred into the well plate and the compound and cells were incubated in the cell incubator at 37° C. with 5% CO2 for 3 days.
The 384-well plates were removed from the cell incubator and allowed to equilibrate for 1 h to room temperature. 25 ul of Cell Titer-Glo assay was added to each well, lysed on a shaker for 2 min and then read out (Luminescence) using a BMG PHERAStar after 10 min incubation. Calculate the inhibition rate from the luminescence signal: first calculate the average of the positive control (maximum signal control) and the negative control (minimum signal control).
[formula] to calculate the rate of inhibition of the cells by different concentrations of the compounds. The IC50 of the compound on cell activity inhibition was calculated by fitting a log(inhibitor) vs. response-Variable slope model to GraphPad Prism 6. The fitted equation was: Y=Bottom+(Top−Bottom)/(1+10^((Log IC50−X)*HillSlope)), where Y represents the rate of inhibition and X represents the concentration of the known compound after Log.

CYP1A2 = target: T1, CYP1A2 (Homo sapiens, UniProt P05177); experiment: Inhibition of cytochrome P450, CYP1A2; format: in vitro ADME; conditions: CYP1A2 enzyme, pH 7.4, probe EOMCC, read-out: CYP inhibition/% 1A2; for inhibition at 30 min, 1 µM: compound concentration 1 μM; for inhibition at 30 min, 10 µM: compound concentration 10 μM
T1 sequence (P05177 1-516): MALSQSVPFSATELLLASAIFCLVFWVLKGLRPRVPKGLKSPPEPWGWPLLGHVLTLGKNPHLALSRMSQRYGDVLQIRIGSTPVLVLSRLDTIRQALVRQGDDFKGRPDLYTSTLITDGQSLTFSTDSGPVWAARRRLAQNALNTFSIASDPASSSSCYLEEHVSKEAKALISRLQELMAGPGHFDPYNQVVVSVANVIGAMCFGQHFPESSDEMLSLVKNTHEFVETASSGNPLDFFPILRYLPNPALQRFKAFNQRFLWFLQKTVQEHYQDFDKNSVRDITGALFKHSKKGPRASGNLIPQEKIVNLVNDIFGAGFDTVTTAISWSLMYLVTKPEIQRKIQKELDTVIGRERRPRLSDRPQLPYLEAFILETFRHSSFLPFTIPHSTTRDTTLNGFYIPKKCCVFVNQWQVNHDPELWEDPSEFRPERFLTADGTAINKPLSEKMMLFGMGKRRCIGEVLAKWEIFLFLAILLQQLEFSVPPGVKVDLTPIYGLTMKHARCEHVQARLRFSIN
Description: (§1) Enzymatic experiments were performed to quantify the inhibition of CYP450 enzyme activity of each isoform of CYP450 by small molecule inhibitors through fluorescence generated by the oxidation of the substrate by cytochrome P450. […] The Solution B composition used for the experiment was: 40 U/mL G6PDH (Sigma-aldrich, Cat #G6378). The substrate mix was 0.05× Solution A, 0.01× Solution B, 50 mM Potassium Phosphate, 0.01 mM BOMCC/0.01 mM EOMCC/0.001 mM DBOMF. […] The data were analyzed and processed using GraphPad Prism 6 software to obtain IC50 values.

CYP2C8 = target: T2, CYP2C8 (Homo sapiens, UniProt P10632); experiment: Inhibition of cytochrome P450, CYP2C8; format: in vitro ADME; conditions: CYP2C8 enzyme, pH 7.4, probe DBOMF, read-out: CYP inhibition/% 2C8; for inhibition at 30 min, 1 µM: compound concentration 1 μM; for inhibition at 30 min, 10 µM: compound concentration 10 μM
T2 sequence (P10632 1-490): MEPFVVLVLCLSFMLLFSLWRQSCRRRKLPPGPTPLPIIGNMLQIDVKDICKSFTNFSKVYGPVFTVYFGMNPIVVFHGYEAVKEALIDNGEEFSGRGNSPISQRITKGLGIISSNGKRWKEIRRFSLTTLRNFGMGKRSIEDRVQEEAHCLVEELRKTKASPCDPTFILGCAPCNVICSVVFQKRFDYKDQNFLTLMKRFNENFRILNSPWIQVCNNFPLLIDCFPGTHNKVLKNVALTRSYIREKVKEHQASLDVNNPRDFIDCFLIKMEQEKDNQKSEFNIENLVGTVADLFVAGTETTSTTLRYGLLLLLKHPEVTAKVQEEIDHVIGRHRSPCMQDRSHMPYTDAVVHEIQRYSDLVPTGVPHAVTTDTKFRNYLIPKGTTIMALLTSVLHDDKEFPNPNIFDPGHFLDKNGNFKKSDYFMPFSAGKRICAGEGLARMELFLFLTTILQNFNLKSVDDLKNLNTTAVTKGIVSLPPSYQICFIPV
Description: as §1

[2] = 72 h, MIA Paca-2 cells, 3 days, Cell Titer-Glo

| half-life at 1 µM [1] [min] | IC50 (MIA Paca-2 cells; [2]) [µM] | inhibition at 30 min, 1 µM (CYP1A2) [%] | inhibition at 30 min, 10 µM (CYP1A2) [%] | inhibition at 30 min, 1 µM (CYP2C8) [%] | inhibition at 30 min, 10 µM (CYP2C8) [%] | SMILES | IC50 (MIA Paca-2 cells; MIA PaCa-2, 72 h) [µM] |
| --- | --- | --- | --- | --- | --- | --- | --- |
| 30.1 | 0.1 to 1 |  |  |  |  | C=CCn1c(=O)c2cnc(Nc3ccc(N4CCN(C)CC4)cc3)nc2n1-c1cccc(C(C)(C)O)n1 [AZD-1775, reference compound] |  |
| 15.6 |  | 13.5 | 14.2 | -11 | 0.24 | CN1CCN(c2ccc(Nc3ncc4cnn(-c5cccc(C(C)(C)O)n5)c4n3)cc2)CC1 [Compound 2] |  |
|  |  | 15.5 | 23.3 | -14.3 | 20.9 | CS(C)(=O)=Nc1cccc(-n2ncc3cnc(Nc4ccc(N5CCOCC5)cc4)nc32)n1 [Compound 6] |  |
| 67.3 | < 0.1 |  |  |  |  | Cc1cc(Nc2ncc3cnn(-c4cccc(N=S(C)(C)=O)n4)c3n2)ccc1N1CCC(N(C)C)CC1 [Compound 14] |  |
| 8.9 | 0.1 to 1 |  |  |  |  | Cc1cc(Nc2ncc3cnn(-c4cccc(N=S(C)(C)=O)n4)c3n2)ccc1N1CCN(C)CC1 [Compound 16] |  |

| SMILES | half-life at 1 µM [1] [min] | IC50 (MIA Paca-2 cells; [2]) [µM] | inhibition at 30 min, 1 µM (CYP1A2) [%] | inhibition at 30 min, 10 µM (CYP1A2) [%] | inhibition at 30 min, 1 µM (CYP2C8) [%] | inhibition at 30 min, 10 µM (CYP2C8) [%] | IC50 (MIA Paca-2 cells; MIA PaCa-2, 72 h) [µM] |
| --- | --- | --- | --- | --- | --- | --- | --- |
| CN1CCN(c2ccc(Nc3ncc4cnn(-c5cccc(N=S(C)(C)=O)n5)c4n3)cc2)CC1 [Compound 1] | 60.3 |  | 18.4 | 16.3 | -5.3 | 3.2 | 0.1 to 1 |

Source: US12649748B2, “Wee1 inhibitor and use thereof” (JIANGSU TASLY DIYI PHARMACEUTICAL CO., LTD., priority 2021, dated 2026)
